# Data taken from US12509460B2 (Skyhawk Therapeutics, Inc., priority 2019, dated 2025).
# Like-named read-outs stand apart in the source and are kept apart here.
# Columns and labels:
# [1] = system: mHTT protein in GM04724 (CAG 70/20) Huntington's disease patient lymphoblast cells; experiment: mHTT protein assay, 2B7-MW1 assay via Mesoscale Discovery (MSD); format: cell-based, human
# Description: Example A10: mHTT Protein Assay
# Compounds are tested on GM04724 (CAG 70/20) Huntington's disease patient lymphoblast cells at doses ranging from 10 μM to 0.6 nM. 4,500 cells/well are seeded in 384 well plates. One plate replica is carried out for parallel viability testing by CellTiter Glo (CTG). Compounds are incubated for 48 hours. mHTT protein levels are assessed by the 2B7-MW1 assay via Mesoscale Discovery (MSD) as previously reported (Macdonald et al., 2014). The antibody pair is comprised of previously characterized monoclonals (2B7 and MW1) interrogating two regions for HTT conformation and biological properties: the N, 17 domain and the polyQ domain (Baldo et al., 2012; Ko et., 2001). 2B7-MW1 is […] specific levels of HTT at the time of treatment. 2B7-MW1 is dependent on polyQ expansion (e.g., the higher the expansion the higher the signal) and on mHTT size (e.g., a similar polyQ will give higher signal with smaller HTT size). The viability readout is carried out by CTG according to the manufacturer's instructions.
# [2] = system: SMN FL and SMN Δ7 in spinal muscular atrophy (SMA) patient fibroblasts (GM03813, Coriell); experiment: Quantitative splicing assay (SMN), qPCR; format: cell-based, human; details: read-out: SMN2 Splicing FL EC50
# Description: Spinal muscular atrophy (SMA) patient fibroblasts (GM03813, Coriell) are plated in 96-well plates at 50,000 cells/well. […] Treated cells are lysed and cDNA synthesized using the Fast Advanced Cells-to-Ct kit (Thermofisher A35378) according to the manufacturer's instructions. 2 μL of each cDNA are used in qPCR reactions. […] Reactions are run in a Quant Studio 6 qPCR instrument with default settings.
# [3] = system: SMN protein in spinal muscular atrophy (SMA) patient fibroblasts (GM03813, Coriell); experiment: SMN protein assay, Mesoscale Discovery (MSD); format: cell-based, human; details: for EC50: read-out: SMN2 protein EC50
# Description: Example A12: SMN Protein Assay
# Compounds are tested on spinal muscular atrophy (SMA) patient fibroblasts (GM03813, Coriell) at doses ranging from 2.5 μM to 0.6 nM. 7000 cells/well are seeded in 96-well plates. Compounds are incubated for 48 hours and the cells were lysed with 100 μL of lysis buffer. 20 μL of lysate is used for SMN protein measurement by Mesoscale Discovery (MSD) assay developed by PharmOptima (Michigan). A standard curve prepared with SMN protein ranging from 1 μg/ml to 19.5 pg/ml is used in each MSD plate to calculate the absolute SMN protein amount in each sample.
# [4] = system: MDR1-MDCK cell monolayers; experiment: Blood-brain-barrier (BBB) penetration potential via MDCK-MDR1 permeability assay
# Description: (§1) Example A13: Assessment of Blood-Brain-Barrier (BBB) Penetration Potential Via an MDCK-MDR1 Permeability Assay
# (§2) The permeability of compounds is assessed for BBB penetration potential by use of an MDCK-MDR1 assay (Catalog EA203) performed by Absorption Systems, Exton PA.
# (§3) Experimental Procedure: MDR1-MDCK cell monolayers are grown to confluence on collagen-coated, microporous membranes in 12-well assay plates. The permeability assay buffer is Hanks' balanced salt solution containing 10 mM HEPES and 15 mM glucose at a pH of 7.4. The buffer in the receiver chamber also contained 1% bovine serum albumin. The dosing solution concentration is 5 μM of test article in the assay buffer. Cell monolayers are dosed on the apical side (A-to-B) or basolateral side (B-to-A) and incubated at 37° C. with 5% CO2 in a humidified incubator. Samples are taken from the donor and receiver chambers at 120 minutes. Each determination is performed in duplicate. The flux of lucifer yellow is also measured post-experimentally for each monolayer to ensure no damage is inflicted to the cell monolayers during the flux period. All samples are assayed by LC-MS/MS using electrospray ionization.
# (§4) The apparent permeability (Papp) and percent recovery are calculated as follows:
# (§5) Analytical Method: Liquid Chromatography. Column: Waters ACQUITY UPLC BEH Phenyl 30 ×2.1 mm, 1.7 μm; M.P. Buffer. 25 mM ammonium formate buffer, pH 3.5; Aqueous Reservoir (A): 90% water, 10% buffer, Organic Reservoir (B): 90% acetonitrile, 10% buffer, Flow Rate: 0.7 mL/minute; Gradient Program:
# (§6) • Total Run Time: 1.00 minute • Autosampler. 2 μL injection volume • Wash1: water/methanol/2-propanol:1/1/1; with 0.2% formic acid • Wash2: 0.1% formic acid in water • Brain Penetration • Potential Classification: A-B Papp≥3.0 and Efflux Ratio <3.0: High • A-B Papp≥3.0 and 10≥Efflux Ratio >3.0: Moderate • A-B Papp≥3.0 and Efflux Ratio≥10: Low • A-B Papp<3.0: Low
# [5] = system: MDR1 (P-gp); experiment: as above; details: dog; for Papp A→B at 120 min, 5 μM: MDCK-MDR1, pH 7.4, MDCK-MDR1: Papp A-B; for Papp B→A at 120 min, 5 μM: MDCK-MDR1, pH 7.4, MDCK-MDR1: Papp B-A
# Description: as §1, §2, §3, §4, §5, §6
# [6] = system: MDR1 (P-gp); experiment: in vitro; details: dog, MDCK-MDR1, pH 7.4
# Description: as §1, §2, §3, §4, §5, §6
# [7] = system: MDR1-MDCK cell monolayers; details: dog, MDCK-MDR1, 120 min, 5 μM, pH 7.4
# Description: as §1, §2, §3, §4, §5, §6
# [8] = system: MDR1; experiment: Blood-brain-barrier (BBB) penetration potential via MDCK-MDR1 permeability assay; details: dog, MDCK-MDR1, pH 7.4, MDCK-MDR1: Efflux
# Description: as §1, §2, §3, §4, §5, §6
# [9] = GM04724 (CAG 70/20) Huntington's disease patient lymphoblasts
# [10] = SMA patient fibroblasts (GM03813), 48 hours
# [11] = GM04724 Huntington's disease patient lymphoblasts
# [12] = SMA patient fibroblasts GM03813, 48 hours, MSD
structure (smiles),measurement,setting,value
"CN(c1ccc(-c2cc3cnccc3cc2O)nn1)[C@@H]1C[C@H]2CC(F)(F)[C@@H](C1)N2 [Compound 126A, 7-(6-(((1S,3R,5R)-6,6-difluoro-8-azabicyclo[3.2.1]octan-3-yl)(methyl)amino)pyridazin-3-yl)isoquinolin-6-ol]",EC50,[1]; [9],51 to 100 nM
same,EC50,"[2]; Homo sapiens, Fibroblast, 24 h, SMA patient fibroblasts (GM03813), 24 h",16 to 50 nM
same,EC50,[3]; [10],0.01 to 15 nM
same,MDCK-MDR1: % Recov A-B,[4]; A-B,80%
same,MDCK-MDR1: % Recov B-A,[4]; B-A,92%
same,"efflux ratio at 120 min, 5 μM","[5]; MDCK-MDR1, pH 7.4, MDCK-MDR1: Efflux",3
same,"Papp A→B at 120 min, 5 μM",[5]; A-B,13.7 ×10⁻⁶ cm/s
same,"Papp B→A at 120 min, 5 μM",[5]; B-A,35.3 ×10⁻⁶ cm/s
"CN(c1ccc(-c2cc3cnccc3cc2O)nn1)[C@H]1C[C@@H]2CC(F)(F)[C@H](C1)N2 [Compound 126B, 7-(6-(((1R,3S,5S)-6,6-difluoro-8-azabicyclo[3.2.1]octan-3-yl)(methyl)amino)pyridazin-3-yl)isoquinolin-6-ol]","Papp A→B at 120 min, 5 μM",[6],12.6 ×10⁻⁶ cm/s
same,"Papp B→A at 120 min, 5 μM",[6],39.4 ×10⁻⁶ cm/s
same,"efflux ratio at 120 min, 5 μM",[6],3
same,mHTT protein EC50,[1]; [9],E (501 ≤ E ≤ 10.000)
same,EC50,[3]; [10],101 to 500 nM
same,MDCK-MDR1: % Recov A-B,[7],75%
same,MDCK-MDR1: % Recov B-A,[7],88%
"CN(c1ccc(-c2ccc(C3=CCCC3)cc2O)nn1)[C@@H]1C[C@H]2CC[C@H](N2)[C@@H]1F [Compound 34A, 5-(cyclopent-1-en-1-yl)-2-(6-(((1S,2S,3R,5R)-2-fluoro-8-azabicyclo[3.2.1]octan-3-yl)(methyl)amino)pyridazin-3-yl)phenol]",EC50,[1]; [11],101 to 500 nM
same,EC50,[3]; [12],16 to 50 nM
same,MDCK-MDR1: % Recov A-B,[4]; A-B direction,8%
same,MDCK-MDR1: % Recov B-A,[4]; B-A direction,55%
same,"efflux ratio at 120 min, 5 μM",[8]; efflux ratio,2
same,"Papp A→B at 120 min, 5 μM",[5]; A-B direction,0.63 ×10⁻⁶ cm/s
same,"Papp B→A at 120 min, 5 μM",[5]; B-A direction,1.05 ×10⁻⁶ cm/s
"CN(c1ccc(-c2ccc(C#N)cc2O)nn1)[C@H]1C[C@@H]2CCC[C@@H](N2)[C@H]1F [Compound 39B, 4-(6-(((1R,2R,3S,5S)-2-fluoro-9-azabicyclo[3.3.1]nonan-3-yl)(methyl)amino)pyridazin-3-yl)-3-hydroxybenzonitrile]",EC50,[1]; [11],101 to 500 nM
same,EC50,[3]; [12],16 to 50 nM
same,MDCK-MDR1: % Recov A-B,[4]; A-B direction,96%
same,MDCK-MDR1: % Recov B-A,[4]; B-A direction,86%
same,"efflux ratio at 120 min, 5 μM",[8]; efflux ratio,9
same,"Papp A→B at 120 min, 5 μM",[5]; A-B direction,4.57 ×10⁻⁶ cm/s
same,"Papp B→A at 120 min, 5 μM",[5]; B-A direction,40.6 ×10⁻⁶ cm/s
"CN(c1ccc(-c2cc3cnccc3cc2O)nn1)[C@@H]1C[C@H]2CC[C@H](N2)[C@@H]1F (single isomer, unassigned) [Compound 7B]",EC50,[1]; [11],51 to 100 nM
same,EC50,"[2]; SMA patient fibroblasts GM03813, 24 h, qPCR",51 to 100 nM
same,EC50,[3]; [12],0.01 to 15 nM
same,MDCK-MDR1: % Recov A-B,[4]; A-B direction,69%
same,MDCK-MDR1: Papp A-B,[4]; A-B direction,"4.27 10^−6, cm/s"
same,MDCK-MDR1: % Recov B-A,[4]; B-A direction,89%
same,MDCK-MDR1: Papp B-A,[4]; B-A direction,"36.1 10^−6, cm/s"
same,MDCK-MDR1: Efflux,[4]; efflux ratio,8
"CN(c1ccc(-c2ccc(-c3cnn(C)c3)cc2O)nn1)[C@@H]1C[C@H]2CCC[C@H](N2)[C@@H]1F [Compound 15A, 2-(6-(((1S,2S,3R,5R)-2-fluoro-9-azabicyclo[3.3.1]nonan-3-yl)(methyl)amino)pyridazin-3-yl)-5-(1-methyl-1H-pyrazol-4-yl)phenol]",EC50,[1]; [11],0.01 to 15 nM
same,EC50,[3]; [12],0.01 to 15 nM
same,MDCK-MDR1: % Recov A-B,[4]; A-B direction,61%
same,MDCK-MDR1: % Recov B-A,[4]; B-A direction,70%
same,"efflux ratio at 120 min, 5 μM",[8]; efflux ratio,12
same,"Papp A→B at 120 min, 5 μM",[5]; A-B direction,2.76 ×10⁻⁶ cm/s
same,"Papp B→A at 120 min, 5 μM",[5]; B-A direction,34.4 ×10⁻⁶ cm/s
"Cc1nc2cc(-c3ccc(N(C)[C@@H]4C[C@H]5CC[C@H](N5)[C@@H]4F)nn3)c(O)cc2c(=O)n1CC(F)(F)F [Compound 113A, 7-(6-(((1S,2S,3R,5R)-2-fluoro-8-azabicyclo[3.2.1]octan-3-yl)(methyl)amino)pyridazin-3-yl)-6-hydroxy-2-methyl-3-(2,2,2-trifluoroethyl)quinazolin-4(3H)-one]",mHTT protein EC50,[1]; [9],E (501 ≤ E ≤ 10.000)
same,EC50,[3]; [10],0.01 to 15 nM
same,MDCK-MDR1: % Recov A-B,[4]; A-B,96%
same,MDCK-MDR1: % Recov B-A,[4]; B-A,99%
same,"efflux ratio at 120 min, 5 μM",[8],333
same,"Papp A→B at 120 min, 5 μM",[5]; A-B,0.2 ×10⁻⁶ cm/s
same,"Papp B→A at 120 min, 5 μM",[5]; B-A,66.9 ×10⁻⁶ cm/s
"CN(c1ccc(-c2cc3cnccc3cc2O)nn1)[C@H]1C[C@@H]2CC[C@H]([C@H]1F)N2C [Compound 93B, 7-(6-(((1R,2R,3S,5S)-2-fluoro-8-methyl-8-azabicyclo[3.2.1]octan-3-yl)(methyl)amino)pyridazin-3-yl)isoquinolin-6-ol]",EC50,[1]; [11],101 to 500 nM
same,EC50,[3]; [12],51 to 100 nM
same,MDCK-MDR1: % Recov A-B,[4]; A-B direction,45%
same,MDCK-MDR1: % Recov B-A,[4]; B-A direction,63%
same,"efflux ratio at 120 min, 5 μM",[8]; efflux ratio,4
same,"Papp A→B at 120 min, 5 μM",[5]; A-B direction,5.39 ×10⁻⁶ cm/s
same,"Papp B→A at 120 min, 5 μM",[5]; B-A direction,22.3 ×10⁻⁶ cm/s
"CN(c1ccc(-c2ccc(-c3cnc(C#N)cn3)cc2O)nn1)[C@@H]1C[C@H]2CCC[C@H](N2)[C@@H]1F [Compound 28A, 5-(4-(6-(((1S,2S,3R,5R)-2-fluoro-9-azabicyclo[3.3.1]nonan-3-yl)(methyl)amino)pyridazin-3-yl)-3-hydroxyphenyl) pyrazine-2-carbonitrile]",EC50,[1]; [11],16 to 50 nM
same,SMN2 protein EC50,[3]; [12],E (501 ≤ E ≤ 10.000)
same,MDCK-MDR1: % Recov A-B,[4]; A-B direction,40%
same,MDCK-MDR1: % Recov B-A,[4]; B-A direction,61%
same,"efflux ratio at 120 min, 5 μM",[8]; efflux ratio,20
same,"Papp A→B at 120 min, 5 μM",[5]; A-B direction,1.41 ×10⁻⁶ cm/s
same,"Papp B→A at 120 min, 5 μM",[5]; B-A direction,28.4 ×10⁻⁶ cm/s
"CN(c1ccc(-c2ccc(-n3cnc(Cl)c3)cc2O)nn1)[C@H]1C[C@@H]2CC(F)(F)[C@H](C1)N2 [Compound 37B, 5-(4-chloro-1H-imidazol-1-yl)-2-(6-(((1R,3S,5S)-6,6-difluoro-8-azabicyclo[3.2.1]octan-3-yl)(methyl)amino)pyridazin-3-yl)phenol]",EC50,[1]; [11],51 to 100 nM
same,EC50,[3]; [12],101 to 500 nM
same,MDCK-MDR1: % Recov A-B,[4]; A-B direction,54%
same,MDCK-MDR1: % Recov B-A,[4]; B-A direction,70%
same,"efflux ratio at 120 min, 5 μM",[8]; efflux ratio,2
same,"Papp A→B at 120 min, 5 μM",[5]; A-B direction,19 ×10⁻⁶ cm/s
same,"Papp B→A at 120 min, 5 μM",[5]; B-A direction,32.7 ×10⁻⁶ cm/s
"CN(C)C(=O)c1cc2cc(O)c(-c3ccc(N(C4CC4)[C@H]4C[C@@H]5CC[C@@H](N5)[C@H]4F)nn3)cc2o1 [Compound 86B, 6-(6-(cyclopropyl((1R,2R,3S,5S)-2-fluoro-8-azabicyclo[3.2.1]octan-3-yl)amino)pyridazin-3-yl)-5-hydroxy-N,N-dimethylbenzofuran-2-carboxamide]",EC50,[1]; [11],16 to 50 nM
same,EC50,[3]; [12],51 to 100 nM
same,MDCK-MDR1: % Recov A-B,[4]; A-B direction,88%
same,MDCK-MDR1: % Recov B-A,[4]; B-A direction,92%
same,"efflux ratio at 120 min, 5 μM",[8]; efflux ratio,66
same,"Papp A→B at 120 min, 5 μM",[5]; A-B direction,0.81 ×10⁻⁶ cm/s
same,"Papp B→A at 120 min, 5 μM",[5]; B-A direction,53.6 ×10⁻⁶ cm/s
